Assay results published in patent US12692248B2, “Solid state forms of (S)-N-(3-(2-(((R)-1-hydroxypropan-2-yl)amino)-6-morpholinopyridin-4-yl)-4-methylphenyl)-3-(2,2,2-trifluoroethyl)pyrrolidine-1-carboxamide and salts thereof” (PIERRE FABRE MEDICAMENT, priority 2021, dated 2026).
Like-named read-outs stand apart in the source and are kept apart here.

Tests used:
Format in all cases: physicochemical
[1] = Dynamic Vapor Sorption (DVS); conditions: DVS
Description: Dynamic Vapor Sorption (DVS) Moisture sorption/desorption data was collected on a DVS Intrinsic PLUS (SMS, UK). The sample was placed into a tared sample chamber and automatically weighed. The sample was dried at 40° C./0%0 RH until the dm/dt was less than 0.00200 and cooled to 25° C. [table]

[2] = Stability at 60° C. and 40° C. at 75% relative humidity for 9 days (UPLC purity, XRPD); conditions: UPLC; for Purity −3 d: 3 days; for Purity −9 d: 9 days
Description: Compound 1 and Compound 2 were evaluated for stability at 60° C. and 40° C. at 75% relative humidity for 9 days. At 0, 3, and 9 days, the samples were dissolved with diluent to prepare a solution for purity analysis by UPLC. Solid samples were also analyzed by XRPD to check the crystal form.

[3] = Stability of Compound 2 in 0.5% MC/0.1% Tween 80 at 10 mg/mL; conditions: suspension 10 mg/mL in 0.5% MC/0.1% Tween 80, RT, 7 days
Description: A solution of Compound 2 was evaluated for stability in 0.5% MC/0.1% Tween 80 at 10 mg/mL. 10.7 mg of Compound 2 was weighed into a sample vial, and then 500 μL of 1% MC and 500 μL of 0.2% Tween 80 were added to obtain a suspension at 10 mg/mL (calculated as the free base). The mixture was kept stirring for 15 min at RT and the suspension was placed at RT for 7 days.

[4] = Thermodynamic solubility in 13 solvents at RT and 50° C. by UPLC; conditions: for solubility: thermodynamic from solid; for XRPD at 1 d / XRPD at 4 d: residual solid
Description: Thermodynamic solubility of Compound 2 was measured in 13 solvents at RT and 50° C. by UPLC, respectively. […] In most of other selected solvents, the compound was almost insoluble (<0.5 mg/mL) except in EtOH and water where it was slightly soluble (6-9 mg/mL).

[5] = Comparison dissolution trials in water and biorelevant media; conditions: for solubility at 0.5 h: read-out: Solubility (mg/mL) 0.5 h; for solubility at 2 h: read-out: Solubility (mg/mL) 2 h; for solubility at 24 h: read-out: Solubility (mg/mL) 24 h
Description: Comparison dissolution trials were performed on Compounds 1 and 2. About 20 mg of each sample was weighed into a sample vial and then 4 mL of media was added to make a suspension. All suspensions were shaken at 37° C. with a rate of 200 rpm. […] He pH of the filtrate was measured, and the filter cake was analyzed by XRPD. […] In biorelevant dissolution media FaSSIF and FeSSIF, the solubility of the Compound 1 and Compound 2 were similar.

[6] = simulated gastric fluid, thermodynamic from solid, SGF, 37° C.
[7] = thermodynamic from solid, FaSSIF, 37° C.
[8] = thermodynamic from solid, FeSSIF, 37° C.
[9] = thermodynamic from solid, Water, 37° C.

Compound: Cc1ccc(NC(=O)N2CC[C@@H](CC(F)(F)F)C2)cc1-c1cc(N[C@H](C)CO)nc(N2CCOCC2)c1.Cl [Compound 2, (S)—N-(3-(2-(((R)-1-hydroxypropan-2-yl)amino)-6-morpholinopyridin-4-yl)-4-methylphenyl)-3-(2,2,2-trifluoroethyl)pyrrolidine-1-carboxamide hydrochloride]
- hygroscopicity [1]: slightly hydroscopic
- water uptake at 80% RH ([1]; 25° C., 80% relative humidity): 0.66%
- water uptake at 90% relative humidity ([1]; 25° C., 90% relative humidity): 0.95%
- Purity −0 d (Area %) ([2]; 0 days (initial)): 99.77 Area %
- Purity −3 d ([2]; 40° C./75% RH): 99.74 Area %
- Purity −9 d ([2]; 40° C./75% RH): 99.76 Area %
- Purity −3 d ([2]; 60° C.): 99.73 Area %
- Purity −9 d ([2]; 60° C.): 99.74 Area %
- form change [3]: No form change
- purity decrease ([3]; UPLC): 0.13%
- solubility ([4]; ACN, 50 °C, organic solvent or mixture, ACN, 50° C., read-out: Solubility at 50° C.(mg/mL)): 0.92 mg/mL
- solubility ([4]; ACN, organic solvent or mixture, ACN, RT, read-out: Solubility at RT): 0.01 mg/mL
- solubility ([4]; EA, 50 °C, organic solvent or mixture, EA, 50° C., read-out: Solubility at 50° C.(mg/mL)): 0.09 mg/mL
- solubility ([4]; EA, organic solvent or mixture, EA, RT, read-out: Solubility at RT): 0.06 mg/mL
- solubility ([4]; EtOH and water, water, EtOH and water (slightly soluble), read-out: solubility): 6 to 9 mg/mL
- solubility ([4]; EtOH, 50 °C, organic solvent or mixture, EtOH, 50° C., read-out: Solubility at 50° C.(mg/mL)): 8.82 mg/mL
- solubility ([4]; EtOH, organic solvent or mixture, EtOH, RT, read-out: Solubility at RT): 7.15 mg/mL
- solubility ([4]; Hept, 50 °C, organic solvent or mixture, Hept, 50° C., read-out: Solubility at 50° C.(mg/mL)): 0.01 mg/mL
- solubility ([4]; Hept, organic solvent or mixture, Hept, RT, read-out: Solubility at RT): 0.01 mg/mL
- solubility ([4]; IPA, 50 °C, organic solvent or mixture, IPA, 50° C., read-out: Solubility at 50° C.(mg/mL)): 2.8 mg/mL
- solubility ([4]; IPA, organic solvent or mixture, IPA, RT, read-out: Solubility at RT): 1.69 mg/mL
- solubility ([4]; IPAC, 50 °C, organic solvent or mixture, IPAC, 50° C., read-out: Solubility at 50° C.(mg/mL)): 0.03 mg/mL
- solubility ([4]; IPAC, organic solvent or mixture, IPAC, RT, read-out: Solubility at RT): 0.02 mg/mL
- solubility ([4]; MEK, 50 °C, organic solvent or mixture, MEK, 50° C., read-out: Solubility at 50° C.(mg/mL)): 0.28 mg/mL
- solubility ([4]; MEK, organic solvent or mixture, MEK, RT, read-out: Solubility at RT): 0.01 mg/mL
- solubility ([4]; MIBK, 50 °C, organic solvent or mixture, MIBK, 50° C., read-out: Solubility at 50° C.(mg/mL)): 0.11 mg/mL
- solubility ([4]; MIBK, organic solvent or mixture, MIBK, RT, read-out: Solubility at RT): 0.05 mg/mL
- solubility ([4]; MTBE, 50 °C, organic solvent or mixture, MTBE, 50° C., read-out: Solubility at 50° C.(mg/mL)): 0.01 mg/mL
- solubility ([4]; MTBE, organic solvent or mixture, MTBE, RT, read-out: Solubility at RT): 0.02 mg/mL
- solubility ([4]; MeOH, 50 °C, organic solvent or mixture, MeOH, 50° C., read-out: Solubility at 50° C.(mg/mL)): ~102 mg/mL
- Solubility at RT ([4]; MeOH, RT, hydrochloride): 54670 µg/mL
- solubility ([4]; MeOH, organic solvent or mixture, MeOH, RT, read-out: Solubility at RT): ~55 mg/mL
- solubility ([4]; acetone, 50 °C, organic solvent or mixture, Acetone, 50° C., read-out: Solubility at 50° C.(mg/mL)): 0.45 mg/mL
- solubility ([4]; acetone, organic solvent or mixture, Acetone, RT, read-out: Solubility at RT): 0.65 mg/mL
- solubility ([4]; cyclohexane, 50 °C, organic solvent or mixture, Cyclohexane, 50° C., read-out: Solubility at 50° C.(mg/mL)): 0.05 mg/mL
- solubility ([4]; cyclohexane, organic solvent or mixture, Cyclohexane, RT, read-out: Solubility at RT): 0.01 mg/mL
- solubility ([4]; organic solvent or mixture, most of other selected solvents (almost insoluble), read-out: solubility): < 0.5 mg/mL
- XRPD at 1 d ([4]; ACN, 50° C.): Form I
- XRPD at 4 d ([4]; ACN, RT): Form I
- XRPD at 1 d ([4]; Acetone, 50° C.): Form I
- XRPD at 4 d ([4]; Acetone, RT): Form I
- XRPD at 1 d ([4]; Cyclohexane, 50° C.): Form I
- XRPD at 4 d ([4]; Cyclohexane, RT): Form I
- XRPD at 1 d ([4]; EA, 50° C.): Form I
- XRPD at 4 d ([4]; EA, RT): Form I
- XRPD at 1 d ([4]; EtOH, 50° C.): Form I
- XRPD at 4 d ([4]; EtOH, RT): Form I
- XRPD at 1 d ([4]; Hept, 50° C.): Form I
- XRPD at 4 d ([4]; Hept, RT): Form I
- XRPD at 1 d ([4]; IPA, 50° C.): Form I
- XRPD at 4 d ([4]; IPA, RT): Form I
- XRPD at 1 d ([4]; IPAC, 50° C.): Form I
- XRPD at 4 d ([4]; IPAC, RT): Form I
- XRPD at 1 d ([4]; MEK, 50° C.): Form I
- XRPD at 4 d ([4]; MEK, RT): Form I
- XRPD at 1 d ([4]; MIBK, 50° C.): Form I
- XRPD at 4 d ([4]; MIBK, RT): Form I
- XRPD at 1 d ([4]; MTBE, 50° C.): Form I
- XRPD at 4 d ([4]; MTBE, RT): Form I
- XRPD at 1 d ([4]; MeOH, 50° C.): Form I
- XRPD at 4 d ([4]; MeOH, RT): Form I
- XRPD at 1 d ([4]; Water, 50° C.): Form I
- XRPD at 4 d ([4]; Water, RT): Form I
- form change during the solubility testing ([4]; residual solids by XRPD): no form change
- solubility ([4]; water, 50 °C, water, Water, 50° C., read-out: Solubility at 50° C.(mg/mL)): 6.73 mg/mL
- solubility ([4]; water, Water, RT, read-out: Solubility at RT): 6.15 mg/mL
- solubility of Compound 1 and Compound 2 compared ([5]; FaSSIF and FeSSIF): similar
- pH of the filtrate ([5]; Water medium): (pH 3.1)
- solubility at 0.5 h [5, 6]: 0.2 mg/mL
- solubility at 2 h [5, 6]: 0.27 mg/mL
- solubility at 24 h [5, 6]: 0.39 mg/mL
- solubility at 0.5 h [5, 7]: 0.024 mg/mL
- solubility at 2 h [5, 7]: 0.021 mg/mL
- solubility at 24 h [5, 7]: 0.027 mg/mL
- solubility at 0.5 h [5, 8]: 0.21 mg/mL
- solubility at 2 h [5, 8]: 0.2 mg/mL
- solubility at 24 h [5, 8]: 0.23 mg/mL
- solubility at 0.5 h [5, 9]: 1.42 mg/mL
- solubility at 2 h [5, 9]: 1.36 mg/mL
- solubility at 24 h [5, 9]: 2.49 mg/mL
- solubility ([5]; thermodynamic from solid, water, 37° C.): ~2500 µg/mL
